Test results taken from patent US9028845B2, “Chimeric immunomodulatory compounds and methods of using the same-IV” (Dynavax Technologies Corporation, priority 2001, dated 2015).
Entries after “also recorded” stand apart in the source; their conditions may differ.

What was measured:
[1] = system: CD19+ B cells; test: Human B cell proliferation assay (3H-thymidine incorporation); settings: for cpm1 / cpm2 / cpm3 / mean cpm / mean of both: B cells, 2 μg/ml, Experiment B; for mean of both: mean of donors 121 and 194
[2] = system: human PBMCs; test: Human PBMC cytokine response assay (IFN-γ and IFN-α in cell-free medium by ELISA), with or without cPLGA; type: cell-based;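 on IFN-α (pg/ml) mean: 20 µg/mL compound for 24 hours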;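 on IFN-γ (pg/ml) mean: 20 µg/mL compound for 24 hours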
[3] = Table 24, mean of donors 28234-28237
[4] = Table 25, mean of donors 28250-28253
[5] = mean of donors 110, 112, 119, 120, Table 14
[6] = mean of donors 28185-28188, Table 15
[7] = mean of donors 28218-28221, 20 μg/ml, 24 h
[8] = donor 28066, 20 ug/ml, 24 h, + PLGA = premixed with 100 μg/ml cPLGA
[9] = donor 28067, 20 ug/ml, 24 h, + PLGA = premixed with 100 μg/ml cPLGA
[10] = donor 28068, 20 ug/ml, 24 h, + PLGA = premixed with 100 μg/ml cPLGA
[11] = mean of donors 28065-28068, 20 ug/ml, 24 h, + PLGA = premixed with 100 μg/ml cPLGA

Q: “(5′-TCGTCGA-3′-HEG)2-glycerol-HEG-5′-TCGTCGA-3′ [Compound C-94]” was tested. Which cpm1 ([1]; donor 121) did it give?
A: The cpm1 was 11418 cpm.

Q: And the cpm2 ([1]; donor 121)?
A: The cpm2 was 14406 cpm.

Q: What about the cpm3 ([1]; donor 121) of the same substance?
A: Its cpm3 is 11110 cpm.

Q: And the mean cpm ([1]; donor 121 mean)?
A: Its mean cpm is 12311 cpm.

Q: And the cpm1 ([1]; donor 194)?
A: The cpm1 was 7361 cpm.

Q: And the cpm2 ([1]; donor 194)?
A: Its cpm2 is 8505 cpm.

Q: What about the cpm3 ([1]; donor 194) of the same substance?
A: Its cpm3 is 5349 cpm.

Q: And the mean cpm ([1]; donor 194 mean)?
A: Its mean cpm is 7072 cpm.

Q: What about the mean of both [1] of the same substance?
A: The mean of both was 9692 cpm.

Q: And the “B cell proliferation (FIG. 11), in words” value ([1]; purified human B cells, 5 μg/ml, 96 h)?
A: The value was “induce B cells to proliferate”.

Q: What about the “IFN-α induction (FIG. 10), in words” value ([2]; PBMCs from 8 donors, 20 μg/ml, 24 h) of the same substance?
A: The value was “induce high levels of IFN-α”.

Q: What about the IFN-α ([2]; Table 11, donor 28042) of the same substance?
A: Its IFN-α is 302 pg/mL.

Q: What about the IFN-γ ([2]; Table 11, donor 28042) of the same substance?
A: Its IFN-γ is 443 pg/mL.

Q: What about the IFN-α ([2]; Table 11, donor 28043) of the same substance?
A: The IFN-α was 252 pg/mL.

Q: And the IFN-γ ([2]; Table 11, donor 28043)?
A: The IFN-γ was 198 pg/mL.

Q: What about the IFN-α ([2]; Table 11, donor 28044) of the same substance?
A: The IFN-α was 664 pg/mL.

Q: What about the IFN-γ ([2]; Table 11, donor 28044) of the same substance?
A: The IFN-γ was 1417 pg/mL.

Q: And the IFN-α ([2]; Table 11, donor 28045)?
A: The IFN-α was 1855 pg/mL.

Q: And the IFN-γ ([2]; Table 11, donor 28045)?
A: The IFN-γ was 888 pg/mL.

Q: What about the IFN-α mean ([2]; Table 11, mean of donors) of the same substance?
A: Its IFN-α mean is 768 pg/mL.

Q: And the IFN-γ mean ([2]; Table 11, mean of donors)?
A: Its IFN-γ mean is 736 pg/mL.

Q: What about the IFN-α ([2]; Table 24, donor 28234) of the same substance?
A: The IFN-α was 16 pg/mL.

Q: What about the IFN-γ ([2]; Table 24, donor 28234) of the same substance?
A: Its IFN-γ is 7 pg/mL.

Q: And the IFN-α ([2]; Table 24, donor 28235)?
A: Its IFN-α is 118 pg/mL.

Q: What about the IFN-γ ([2]; Table 24, donor 28235) of the same substance?
A: The IFN-γ was 161 pg/mL.

Q: What about the IFN-α ([2]; Table 24, donor 28236) of the same substance?
A: Its IFN-α is 548 pg/mL.

Q: And the IFN-γ ([2]; Table 24, donor 28236)?
A: The IFN-γ was 239 pg/mL.

Q: What about the IFN-α ([2]; Table 24, donor 28237) of the same substance?
A: The IFN-α was 3631 pg/mL.

Q: What about the IFN-γ ([2]; Table 24, donor 28237) of the same substance?
A: The IFN-γ was 1116 pg/mL.

Q: And the IFN-α mean [2, 3]?
A: The IFN-α mean was 1078 pg/mL.

Q: And the IFN-γ mean [2, 3]?
A: The IFN-γ mean was 381 pg/mL.

Q: What about the IFN-a ([2]; Table 25, donor 28250) of the same substance?
A: Its IFN-a is 245 pg/mL.

Q: What about the IFN-g ([2]; Table 25, donor 28250, polynucleotides/spacers at amounts equivalent to the CIC, spacers alone 9 uM) of the same substance?
A: Its IFN-g is 340 pg/mL.

Q: What about the IFN-a ([2]; Table 25, donor 28251) of the same substance?
A: Its IFN-a is 645 pg/mL.

Q: And the IFN-g ([2]; Table 25, donor 28251)?
A: The IFN-g was 60 pg/mL.

Q: And the IFN-a ([2]; Table 25, donor 28252)?
A: Its IFN-a is 323 pg/mL.

Q: And the IFN-g ([2]; Table 25, donor 28252)?
A: The IFN-g was 287 pg/mL.

Q: And the IFN-a ([2]; Table 25, donor 28253)?
A: The IFN-a was 1198 pg/mL.

Q: And the IFN-g ([2]; Table 25, donor 28253)?
A: The IFN-g was 128 pg/mL.

Q: What about the IFN-a mean [2, 4] of the same substance?
A: Its IFN-a mean is 603 pg/mL.

Q: What about the IFN-g mean [2, 4] of the same substance?
A: The IFN-g mean was 204 pg/mL.

Q: And the “IFN-α induced relative to linear CIC C-21” value ([2]; branched vs linear CIC with the same nucleic acid moieties)?
A: Its value is 4 fold.

Q: What about the “IFN-α” value ([2]; donor 110, Table 14) of the same substance?
A: The value was 1608 pg/mL.

Q: And the “IFN-γ” value ([2]; donor 110, Table 14)?
A: Its value is 5168 pg/mL.

Q: And the “IFN-α” value ([2]; donor 112, Table 14)?
A: The value was 144 pg/mL.

Q: And the “IFN-γ” value ([2]; donor 112, Table 14)?
A: The value was 284 pg/mL.

Q: And the “IFN-α” value ([2]; donor 119, Table 14)?
A: The value was 2610 pg/mL.

Q: And the “IFN-γ” value ([2]; donor 119, Table 14)?
A: The value was 104 pg/mL.

Q: And the “IFN-α” value ([2]; donor 120, Table 14)?
A: The value was 878 pg/mL.

Q: And the “IFN-γ” value ([2]; donor 120, Table 14)?
A: The value was 120 pg/mL.

Q: What about the “IFN-a” value ([2]; donor 28185, Table 15) of the same substance?
A: The value was 1895 pg/mL.

Q: And the “IFN-g” value ([2]; donor 28185, Table 15)?
A: The value was 181 pg/mL.

Q: What about the “IFN-a” value ([2]; donor 28186, Table 15) of the same substance?
A: Its value is 239 pg/mL.

Q: What about the “IFN-g” value ([2]; donor 28186, Table 15) of the same substance?
A: Its value is 61 pg/mL.

Q: And the “IFN-a” value ([2]; donor 28187, Table 15)?
A: Its value is 136 pg/mL.

Q: And the “IFN-g” value ([2]; donor 28187, Table 15)?
A: Its value is 384 pg/mL.

Q: And the “IFN-a” value ([2]; donor 28188, Table 15)?
A: The value was 13 pg/mL.

Q: And the “IFN-g” value ([2]; donor 28188, Table 15)?
A: Its value is 17 pg/mL.

Q: And the “IFN-a (pg/ml) 28218” value ([2]; donor 28218, 20 μg/ml, 24 h)?
A: Its value is 32 pg/mL.

Q: What about the “IFN-g (pg/ml) 28218” value ([2]; donor 28218, 20 μg/ml, 24 h) of the same substance?
A: Its value is 15 pg/mL.

Q: And the “IFN-a (pg/ml) 28219” value ([2]; donor 28219, 20 μg/ml, 24 h)?
A: Its value is 167 pg/mL.

Q: And the “IFN-g (pg/ml) 28219” value ([2]; donor 28219, 20 μg/ml, 24 h)?
A: The value was 39 pg/mL.

Q: And the “IFN-a (pg/ml) 28220” value ([2]; donor 28220, 20 μg/ml, 24 h)?
A: Its value is 633 pg/mL.

Q: What about the “IFN-g (pg/ml) 28220” value ([2]; donor 28220, 20 μg/ml, 24 h) of the same substance?
A: Its value is 44 pg/mL.

Q: And the “IFN-a (pg/ml) 28221” value ([2]; donor 28221, 20 μg/ml, 24 h)?
A: The value was 412 pg/mL.

Q: And the “IFN-g (pg/ml) 28221” value ([2]; donor 28221, 20 μg/ml, 24 h)?
A: Its value is 269 pg/mL.

Q: What about the “IFN-α (pg/ml) mean” value [2, 5] of the same substance?
A: The value was 1310 pg/mL.

Q: And the “IFN-γ (pg/ml) mean” value [2, 5]?
A: The value was 1419 pg/mL.

Q: And the “IFN-a (pg/ml) mean” value [2, 6]?
A: Its value is 571 pg/mL.

Q: And the “IFN-g (pg/ml) mean” value [2, 6]?
A: Its value is 161 pg/mL.

Q: And the “IFN-a (pg/ml) mean” value [2, 7]?
A: Its value is 311 pg/mL.

Q: What about the “IFN-g (pg/ml) mean” value [2, 7] of the same substance?
A: Its value is 92 pg/mL.

Q: What about the “IFN-a (pg/ml) ×2” value ([2]; mean ×2, Table 15) of the same substance?
A: Its value is 1142 pg/mL.

Q: What about the “IFN-g (pg/ml) ×4” value ([2]; mean ×4, Table 15) of the same substance?
A: Its value is 644 pg/mL.

Q: What about the “IFN-α induction, in words” value ([2]; used alone) of the same substance?
A: The value was “dramatically higher; also recorded: induced more IFN-α relative to linear CICs with HEG spacers; also recorded: HEG (C-94)>TEG (C-103)>C3 (C-104)=no linker (C-28)”.

Q: What does the source list for “5′-TCGTCG-3′-abasic-5′-ACGTTCG-3′-abasic-5′-AGATGAT-3′ [Compound C-20]”?
A: cpm1 ([1]; donor 121): 31276 cpm; cpm2 ([1]; donor 121): 30851 cpm; cpm3 ([1]; donor 121): 28532 cpm; mean cpm ([1]; donor 121 mean): 30220 cpm; cpm1 ([1]; donor 194): 18082 cpm; cpm2 ([1]; donor 194): 18705 cpm; cpm3 ([1]; donor 194): 17481 cpm; mean cpm ([1]; donor 194 mean): 18089 cpm; mean of both [1]: 24155 cpm; IFN-γ (pg/ml) 28065 ([2]; donor 28065 (high background), 20 ug/ml, 24 h, + PLGA = premixed with 100 μg/ml cPLGA, 1000 = outside assay limits): 354 pg/mL; IFN-α (pg/ml) 28065 ([2]; donor 28065, 20 ug/ml, 24 h, + PLGA = premixed with 100 μg/ml cPLGA): 21 pg/mL; IFN-α (pg/ml) 28066 [2, 8]: 5 pg/mL; IFN-γ (pg/ml) 28066 [2, 8]: 13 pg/mL; IFN-α (pg/ml) 28067 [2, 9]: 13 pg/mL; IFN-γ (pg/ml) 28067 [2, 9]: 16 pg/mL; IFN-α (pg/ml) 28068 [2, 10]: 64 pg/mL; IFN-γ (pg/ml) 28068 [2, 10]: 505 pg/mL; IFN-α (pg/ml) mean [2, 11]: 26 pg/mL; IFN-γ (pg/ml) mean [2, 11]: 222 pg/mL
